From paper PMC5218480 (PLoS ONE, 2017)

System: MV-4-11 cells
Assay: Gene expression microarray analysis (Affymetrix PrimeView) and GSEA
Assay type: cell-based, human
Parameters: RFU PODN (11730768_x_at) / Fold change /veh PODN (11730768_x_at) / RFU LINC00158 (11744669_a_at) / Fold change /veh LINC00158 (11744669_a_at) / RFU DUSP10 (11751237_a_at) / Fold change /veh DUSP10 (11751237_a_at) / RFU ID3 (11757404_x_at) / Fold change /veh ID3 (11757404_x_at) / RFU PLEKHG5 (11737974_s_at) / Fold change /veh PLEKHG5 (11737974_s_at) / RFU LRRC4B (11730491_at) / Fold change /veh LRRC4B (11730491_at) / RFU GIMAP4 (11747438_a_at) / Fold change /veh GIMAP4 (11747438_a_at) / RFU KRT8 (11758183_x_at) / Fold change /veh KRT8 (11758183_x_at) / RFU CNN1 (11734310_a_at) / Fold change /veh CNN1 (11734310_a_at) / RFU VPS37D (11726825_at) / Fold change /veh VPS37D (11726825_at) / RFU C10orf10 (11716522_x_at) / Fold change /veh C10orf10 (11716522_x_at) / RFU KIR2DL2 /// KIR2DL4 /// KIR2DL5A /// KIR2DL5B /// KIR2DS1 /// KIR2DS2 /// KIR2DS3 /// KIR2DS4 /// KIR3DL3 /// KIR3DL3 /// KIR3DS1 (11738374_at) / Fold change /veh KIR2DL2 /// KIR2DL4 /// KIR2DL5A /// KIR2DL5B /// KIR2DS1 /// KIR2DS2 /// KIR2DS3 /// KIR2DS4 /// KIR3DL3 /// KIR3DL3 /// KIR3DS1 (11738374_at) / RFU C1QL1 (11718748_at) / Fold change /veh C1QL1 (11718748_at) / RFU TMPRSS4 (11747572_a_at) / Fold change /veh TMPRSS4 (11747572_a_at) / RFU HAMP (11756126_x_at) / Fold change /veh HAMP (11756126_x_at) / RFU RNFT2 (11725882_a_at) / Fold change /veh RNFT2 (11725882_a_at) / RFU NR4A2 (11747474_a_at) / Fold change /veh NR4A2 (11747474_a_at) / RFU ABCC12 (11746883_a_at) / Fold change /veh ABCC12 (11746883_a_at) / RFU TMEM136 (11760407_x_at) / Fold change /veh TMEM136 (11760407_x_at) / RFU CLDN22 /// WWC2 (11732394_at) / Fold change /veh CLDN22 /// WWC2 (11732394_at) / RFU HLA-DPB1 (11760878_x_at) / Fold change /veh HLA-DPB1 (11760878_x_at) / RFU SPINT1 (11716480_a_at) / Fold change /veh SPINT1 (11716480_a_at) / RFU GAP43 (11754022_s_at) / Fold change /veh GAP43 (11754022_s_at) / RFU A4GNT (11735810_at) / Fold change /veh A4GNT (11735810_at) / RFU PRB3 (11715151_x_at) / Fold change /veh PRB3 (11715151_x_at) / RFU TUBB4B (11761932_at) / Fold change /veh TUBB4B (11761932_at) / RFU CAPN14 (11732068_a_at) / Fold change /veh CAPN14 (11732068_a_at) / RFU TMCC2 (11721928_a_at) / Fold change /veh TMCC2 (11721928_a_at) / RFU IRGQ (11745062_a_at) / Fold change /veh IRGQ (11745062_a_at) / RFU FAM174B (11720279_a_at) / Fold change /veh FAM174B (11720279_a_at) / RFU TMPRSS4 (11748680_a_at) / Fold change /veh TMPRSS4 (11748680_a_at) / RFU FAM212B (11763350_a_at) / Fold change /veh FAM212B (11763350_a_at) / RFU PLEKHG5 (11743358_a_at) / Fold change /veh PLEKHG5 (11743358_a_at) / RFU ZSCAN30 (11745921_a_at) / Fold change /veh ZSCAN30 (11745921_a_at) / RFU CMKLR1 (11741424_a_at) / Fold change /veh CMKLR1 (11741424_a_at) / RFU LOC101060620 /// MAPK8IP1 (11723275_at) / Fold change /veh LOC101060620 /// MAPK8IP1 (11723275_at) / RFU SPTSSB (11747773_x_at) / Fold change /veh SPTSSB (11747773_x_at) / RFU PRSS12 (11739890_at) / Fold change /veh PRSS12 (11739890_at) / RFU BIN1 (11741810_x_at) / Fold change /veh BIN1 (11741810_x_at) / RFU WNT11 (11732464_a_at) / Fold change /veh WNT11 (11732464_a_at) / RFU C10orf10 (11716521_a_at) / Fold change /veh C10orf10 (11716521_a_at) / RFU C5orf56 (11738089_at) / Fold change /veh C5orf56 (11738089_at) / RFU CYB561 (11721691_x_at) / Fold change /veh CYB561 (11721691_x_at) / RFU ANKRD19P (11752326_a_at) / Fold change /veh ANKRD19P (11752326_a_at) / RFU OR2T12 /// OR2T33 /// OR2T8 (11738714_s_at) / Fold change /veh OR2T12 /// OR2T33 /// OR2T8 (11738714_s_at) / RFU VCAN (11748164_a_at) / Fold change /veh VCAN (11748164_a_at) / RFU JSRP1 (11732532_at) / Fold change /veh JSRP1 (11732532_at) / RFU KRTAP10-11 (11738290_x_at) / Fold change /veh KRTAP10-11 (11738290_x_at) / RFU MYO3A (11730013_a_at) / Fold change /veh MYO3A (11730013_a_at) / RFU EBF3 (11725865_a_at) / Fold change /veh EBF3 (11725865_a_at) / RFU CAMK2N1 (11719241_x_at) / Fold change /veh CAMK2N1 (11719241_x_at) / RFU C5orf56 (11738088_a_at) / Fold change /veh C5orf56 (11738088_a_at) / RFU OLFML3 (11715873_a_at) / Fold change /veh OLFML3 (11715873_a_at) / RFU LOC100653217 /// NTM (11731650_a_at) / Fold change /veh LOC100653217 /// NTM (11731650_a_at) / RFU MAPK11 (11762145_a_at) / Fold change /veh MAPK11 (11762145_a_at) / RFU FIZ1 (11724087_x_at) / Fold change /veh FIZ1 (11724087_x_at) / RFU OASL (11726364_x_at) / Fold change /veh OASL (11726364_x_at) / RFU SOX15 (11748057_x_at) / Fold change /veh SOX15 (11748057_x_at) / RFU CD79A (11719716_a_at) / Fold change /veh CD79A (11719716_a_at) / RFU HIST1H1D (11736915_at) / Fold change /veh HIST1H1D (11736915_at) / RFU CASKIN2 (11723855_a_at) / Fold change /veh CASKIN2 (11723855_a_at) / RFU LOC730098 (11760151_x_at) / Fold change /veh LOC730098 (11760151_x_at) / RFU OR4N2 (11742367_at) / Fold change /veh OR4N2 (11742367_at) / RFU PRRT2 (11749266_a_at) / Fold change /veh PRRT2 (11749266_a_at) / RFU SNX32 (11753110_a_at) / Fold change /veh SNX32 (11753110_a_at) / RFU CDHR5 (11726645_a_at) / Fold change /veh CDHR5 (11726645_a_at) / RFU RCAN1 (11760418_a_at) / Fold change /veh RCAN1 (11760418_a_at) / RFU FAM167A (11723789_a_at) / Fold change /veh FAM167A (11723789_a_at) / RFU FAM26E (11764081_at) / Fold change /veh FAM26E (11764081_at) / RFU ISYNA1 (11749810_s_at) / Fold change /veh ISYNA1 (11749810_s_at) / RFU ACY1 (11761880_at) / Fold change /veh ACY1 (11761880_at) / RFU 11764098_at / Fold change /veh 11764098_at / RFU SAMD14 (11745864_x_at) / Fold change /veh SAMD14 (11745864_x_at) / RFU NPB (11741838_a_at) / Fold change /veh NPB (11741838_a_at) / RFU TMPRSS6 (11731388_a_at) / Fold change /veh TMPRSS6 (11731388_a_at) / RFU KRTAP10-2 (11738614_at) / Fold change /veh KRTAP10-2 (11738614_at) / RFU ARHGAP8 /// PRR5-ARHGAP8 (11727945_x_at) / Fold change /veh ARHGAP8 /// PRR5-ARHGAP8 (11727945_x_at) / RFU KRTAP5-7 /// NADSYN1 (11734609_at) / Fold change /veh KRTAP5-7 /// NADSYN1 (11734609_at) / RFU RASL12 (11751679_a_at) / Fold change /veh RASL12 (11751679_a_at) / RFU CDKN2B (11736163_a_at) / Fold change /veh CDKN2B (11736163_a_at) / RFU PRF1 (11729649_at) / Fold change /veh PRF1 (11729649_at) / RFU, ZNF638 /// ZNF638-IT1 / Fold change vs veh, ZNF638 /// ZNF638-IT1 / RFU, PANK3 / Fold change vs veh, PANK3 / RFU, SH3YL1 / Fold change vs veh, SH3YL1 / RFU, ZEB2 / Fold change vs veh, ZEB2 / RFU, NRIP1 / Fold change vs veh, NRIP1 / RFU, PTTG1IP / Fold change vs veh, PTTG1IP / RFU, CAPN2 / Fold change vs veh, CAPN2 / RFU, MED14 / Fold change vs veh, MED14 / RFU, SNORA58 / Fold change vs veh, SNORA58 / RFU, C1orf63 / Fold change vs veh, C1orf63 / RFU, LRRFIP1 / Fold change vs veh, LRRFIP1 / RFU, NDUFAF7 / Fold change vs veh, NDUFAF7 / RFU, SLC12A2 / Fold change vs veh, SLC12A2 / RFU, IBTK / Fold change vs veh, IBTK / RFU, ESF1 / Fold change vs veh, ESF1 / Fold change vs veh, TMEM50B / RFU, TAOK1 / Fold change vs veh, TAOK1 / RFU, ACBD3 / Fold change vs veh, ACBD3 / RFU, TMA16 / Fold change vs veh, TMA16 / RFU, RWDD3 / Fold change vs veh, RWDD3 / RFU, BCAT1 / Fold change vs veh, BCAT1 / RFU, EDEM3 / Fold change vs veh, EDEM3 / RFU, TMEM33 / Fold change vs veh, TMEM33 / RFU, WDR75 / Fold change vs veh, WDR75 / RFU, AHCTF1 / Fold change vs veh, AHCTF1 / RFU, TFRC / Fold change vs veh, TFRC / RFU, ZDHHC17 / Fold change vs veh, ZDHHC17 / RFU, NOM1 / Fold change vs veh, NOM1 / RFU, ARL8B / Fold change vs veh, ARL8B / RFU, ZBTB11 / Fold change vs veh, ZBTB11 / RFU, TAMM41 / Fold change vs veh, TAMM41 / RFU, KIAA1704 /// LOC100996395 / Fold change vs veh, KIAA1704 /// LOC100996395 / RFU, ING1 / Fold change vs veh, ING1 / RFU, TRMT61B / Fold change vs veh, TRMT61B / RFU, FUBP3 / Fold change vs veh, FUBP3 / RFU, TP53 / Fold change vs veh, TP53 / RFU, TNKS2 / Fold change vs veh, TNKS2 / RFU, ZFP14 / Fold change vs veh, ZFP14 / RFU, ACTR2 / Fold change vs veh, ACTR2 / RFU, PPP3R1 / Fold change vs veh, PPP3R1 / RFU, PIK3R1 / Fold change vs veh, PIK3R1 / RFU, HNRNPA1 / Fold change vs veh, HNRNPA1 / RFU, RNF170 / Fold change vs veh, RNF170 / RFU, ZNF28 / Fold change vs veh, ZNF28 / RFU, RNGTT / Fold change vs veh, RNGTT / RFU, OGT / Fold change vs veh, OGT / RFU, BRD1 / Fold change vs veh, BRD1 / RFU, MARS / Fold change vs veh, MARS / RFU, ZNF655 / Fold change vs veh, ZNF655 / RFU, FAHD1 / Fold change vs veh, FAHD1 / RFU, BDP1 / Fold change vs veh, BDP1 / RFU, LRRCC1 / Fold change vs veh, LRRCC1 / RFU, ARID1A / Fold change vs veh, ARID1A / RFU, ZNF146 / Fold change vs veh, ZNF146 / RFU, ZNF330 / Fold change vs veh, ZNF330 / RFU, GPN3 / Fold change vs veh, GPN3 / RFU, C9orf123 / Fold change vs veh, C9orf123 / RFU, N4BP2L2 / Fold change vs veh, N4BP2L2 / RFU, ARFIP1 / Fold change vs veh, ARFIP1 / RFU, FAM179B / Fold change vs veh, FAM179B / RFU, BCL10 / Fold change vs veh, BCL10 / RFU, UHRF1BP1L / Fold change vs veh, UHRF1BP1L / RFU, BET1 / Fold change vs veh, BET1 / RFU, CNOT2 / Fold change vs veh, CNOT2 / RFU, ZNF268 / Fold change vs veh, ZNF268 / Fold change vs veh, ZNF507 / RFU, DGCR2 / Fold change vs veh, DGCR2 / RFU, WDSUB1 / Fold change vs veh, WDSUB1 / Fold change vs veh, HSP90B1 /// MIR3652 / RFU, ADSS / Fold change vs veh, ADSS / RFU, GK / Fold change vs veh, GK / RFU, ZNF148 / Fold change vs veh, ZNF148 / RFU, TAF9 / Fold change vs veh, TAF9 / RFU, SLC1A5 / Fold change vs veh, SLC1A5 / RFU, SLMO2 / Fold change vs veh, SLMO2 / RFU, ABCC4 / Fold change vs veh, ABCC4 / RFU, LOC101060439 /// RAP1B / Fold change vs veh, LOC101060439 /// RAP1B / RFU, RFX7 / Fold change vs veh, RFX7 / RFU, GTPBP10 / Fold change vs veh, GTPBP10 / RFU, CNEP1R1 / Fold change vs veh, CNEP1R1 / RFU, BIVM-ERCC5 /// ERCC5 / Fold change vs veh, BIVM-ERCC5 /// ERCC5 / RFU, ILF3 / Fold change vs veh, ILF3 / RFU 11762660_at / Fold change /veh 11762660_at / RFU VCAN (11757783_s_at) / Fold change /veh VCAN (11757783_s_at) / RFU DDX43 (11728927_at) / Fold change /veh DDX43 (11728927_at) / RFU KRT8 (11758188_x_at) / Fold change /veh KRT8 (11758188_x_at) / RFU NKD1 (11759106_at) / Fold change /veh NKD1 (11759106_at) / RFU SRD5A1 (11742802_a_at) / Fold change /veh SRD5A1 (11742802_a_at) / RFU TPSAB1 /// TPSB2 (11721975_s_at) / Fold change /veh TPSAB1 /// TPSB2 (11721975_s_at) / RFU GSTM3 (11746129_a_at) / Fold change /veh GSTM3 (11746129_a_at) / RFU IL23R (11737362_x_at) / Fold change /veh IL23R (11737362_x_at) / RFU TMEM51 (11727254_a_at) / Fold change /veh TMEM51 (11727254_a_at) / RFU PIWIL2 (11732686_x_at) / Fold change /veh PIWIL2 (11732686_x_at) / RFU ORM1 (11744905_x_at) / Fold change /veh ORM1 (11744905_x_at) / RFU CCDC152 (11743942_at) / Fold change /veh CCDC152 (11743942_at) / RFU ECM1 (11717891_a_at) / Fold change /veh ECM1 (11717891_a_at) / RFU IL23R (11748794_a_at) / Fold change /veh IL23R (11748794_a_at) / RFU TNFAIP8L3 (11732012_x_at) / Fold change /veh TNFAIP8L3 (11732012_x_at) / RFU MBOAT4 (11741988_at) / Fold change /veh MBOAT4 (11741988_at) / RFU 11764193_at / Fold change /veh 11764193_at / RFU TMEM53 (11763286_at) / Fold change /veh TMEM53 (11763286_at) / RFU MAGEB2 (11727129_at) / Fold change /veh MAGEB2 (11727129_at) / RFU TMEM200A (11744735_a_at) / Fold change /veh TMEM200A (11744735_a_at) / RFU CCDC152 (11751479_a_at) / Fold change /veh CCDC152 (11751479_a_at) / RFU FAM211A (11726209_a_at) / Fold change /veh FAM211A (11726209_a_at) / RFU RGS16 (11746705_a_at) / Fold change /veh RGS16 (11746705_a_at) / RFU VCAN (11755009_s_at) / Fold change /veh VCAN (11755009_s_at) / RFU RHOB (11743442_s_at) / Fold change /veh RHOB (11743442_s_at) / RFU RGS16 (11720943_a_at) / Fold change /veh RGS16 (11720943_a_at) / RFU RGS16 (11720944_at) / Fold change /veh RGS16 (11720944_at) / RFU, VPS4B / Fold change vs veh, VPS4B / RFU, CREB1 / Fold change vs veh, CREB1 / RFU, DNAJC13 / Fold change vs veh, DNAJC13 / RFU, GNAQ / Fold change vs veh, GNAQ / RFU, CDK5R1 / Fold change vs veh, CDK5R1 / RFU, ZRANB3 / Fold change vs veh, ZRANB3 / RFU, CUL4A / Fold change vs veh, CUL4A / RFU, CCNY / Fold change vs veh, CCNY / RFU, UFL1 / Fold change vs veh, UFL1 / RFU, COG3 / Fold change vs veh, COG3 / RFU, DIAPH2 / Fold change vs veh, DIAPH2 / RFU, SKA2 / Fold change vs veh, SKA2 / RFU, AFF3 / Fold change vs veh, AFF3 / RFU, LMF1 / Fold change vs veh, LMF1 / RFU, IPO11 / Fold change vs veh, IPO11 / RFU, DFFB / Fold change vs veh, DFFB / RFU, FOXP1 / Fold change vs veh, FOXP1 / RFU, CARD8 / Fold change vs veh, CARD8 / RFU, STRN3 / Fold change vs veh, STRN3 / RFU, ADK / Fold change vs veh, ADK / RFU, RASSF2 / Fold change vs veh, RASSF2 / RFU, WIPF1 / Fold change vs veh, WIPF1 / RFU, LARP1B / Fold change vs veh, LARP1B / RFU, RASA1 / Fold change vs veh, RASA1 / RFU, RB1 / Fold change vs veh, RB1 / RFU, PPFIA1 / Fold change vs veh, PPFIA1 / RFU, MAT2A / Fold change vs veh, MAT2A / RFU, CCT5 / Fold change vs veh, CCT5 / RFU, WDR92 / Fold change vs veh, WDR92 / RFU, CUX1 / Fold change vs veh, CUX1 / RFU, TTC7A / Fold change vs veh, TTC7A / RFU, TMEM135 / Fold change vs veh, TMEM135 / RFU, DEPTOR / Fold change vs veh, DEPTOR / RFU, CPM / Fold change vs veh, CPM / RFU, DNAJB6 / Fold change vs veh, DNAJB6 / RFU, CACNA2D3 / Fold change vs veh, CACNA2D3 / RFU, DTX4 / Fold change vs veh, DTX4 / RFU, TFCP2 / Fold change vs veh, TFCP2 / RFU, GMCL1 /// GMCL1P1 / Fold change vs veh, GMCL1 /// GMCL1P1 / RFU, AEBP2 / Fold change vs veh, AEBP2 / RFU, SNHG1 /// SNORD22 /// SNORD25 /// SNORD26 /// SNORD27 /// SNORD28 /// SNORD29 /// SNORD31 / Fold change vs veh, SNHG1 /// SNORD22 /// SNORD25 /// SNORD26 /// SNORD27 /// SNORD28 /// SNORD29 /// SNORD31 / Fold change (Aza/veh), C12orf56 (ProbeSet 11735607_a_at) / Fold change (ACY-1035/veh), C12orf56 (ProbeSet 11735607_a_at) / Fold change (Aza/veh), FGFR1OP (ProbeSet 11751329_s_at) / Fold change (ACY-1035/veh), FGFR1OP (ProbeSet 11751329_s_at) / Fold change (Aza/veh), VPS36 (ProbeSet 11739960_a_at) / Fold change (ACY-1035/veh), VPS36 (ProbeSet 11739960_a_at) / RFU SYPL1 (11715823_x_at) / Fold change /veh SYPL1 (11715823_x_at) / RFU IGFBP7 (11715501_s_at) / Fold change /veh IGFBP7 (11715501_s_at) / RFU REEP3 (11722064_at) / Fold change /veh REEP3 (11722064_at) / RFU IGLL1 (11728026_x_at) / Fold change /veh IGLL1 (11728026_x_at): dose or concentration left out as unconfirmed
Settings: ProbeSet 11744854_x_at; LIST B

SMILES: Nc1ccc(-c2cccs2)cc1NC(=O)c1ccc2c(c1)cc(C1CC1)n2CCN1CCOCC1 [ACY-1035]
- RFU, ZNF28: 57.08 RFU
